The record followed here is ChEMBL document CHEMBL3988442, “University of Dundee, Small-Polar-MMV Screening Library” (2021).

The structures appear in SMILES notation.

Experiment [1] can be described thus: microbe, parasite or virus in culture. Conditions: Mycobacterium tuberculosis, 96 h, read-out: pIC50 (converted).
Experiment [2] can be described thus: microbe, parasite or virus in culture. Particulars: Mycobacterium tuberculosis, 72 h, read-out: pIC50 (converted).

Turning to `CC(C)(C)c1n[nH]cc1CNCC1CCN(C2CC2)C1` (stereo unspecified), the IC50 is 27.6 µM in experiment [1] and 28.5 µM in experiment [2].
In the same order, the values of `O=C(NCCO)c1ccc(OCc2cccs2)cc1` are above 501 µM and 378 µM.
Regarding `CN1CCN(C(=O)c2cnsn2)c2ccccc21`, the IC50 in experiment [1] and in experiment [2] was above 501 µM in each case.
For `CNC(=O)COc1cccc(OCC2CC2)c1`, the figures for the IC50 in experiment [1] and in experiment [2] were 188 µM and above 501 µM, respectively.
Turning to `C=C(C)CSc1nnnn1Cc1ccco1`, the IC50 in experiment [1] is 55.3 µM; in experiment [2], 51.6 µM.
On to `Cc1ccc(C2CCCN2Cc2nc(-c3ccco3)no2)cc1` (stereo unspecified), for which the IC50 is 18.7 µM in experiment [1] and 21.8 µM in experiment [2].
With `COc1cccc(C(CO)NC(=O)Cc2ccc(F)c(Br)c2)c1` (stereo unspecified), the IC50 in experiment [1] and in experiment [2] was above 50.1 µM throughout.
Take `CSc1cncc(NCCC(=O)N2CCCC2)n1`: the IC50 in experiment [1] was above 501 µM; in experiment [2], 336 µM.
In the case of `CSc1cccc(N(C)C(=O)C(N)c2ccccc2)c1` (stereo unspecified), the values for the IC50 in experiment [1] and in experiment [2] were above 501 µM and 233 µM, respectively.
As for `COCCCN(C)S(=O)(=O)c1ccc(Br)cn1`, the IC50 in experiment [1] is 206 µM; in experiment [2], 278 µM.
Regarding `CCN(CCS(=O)(=O)c1ccccc1)CC(=O)N(C)C`, the IC50 is 126 µM in experiment [1] and 130 µM in experiment [2].
For `COc1ccc(C(=O)NC2=NCCS2)c(O)c1`, in that order: 185 µM and 456 µM.
In the same order, the values of `CN1CCN(S(=O)(=O)N2CCCC2)Cc2ccccc21` are 271 µM and 155 µM.
Regarding `COc1ccc(C)cc1CN1CCN(S(N)(=O)=O)CC1`, the IC50 in experiment [1] was 184 µM; in experiment [2], 65.2 µM.
For `COc1cc(-c2cccc3c2OC(CN)C3)cc(OC)c1OC` (stereo unspecified), in that order: 43.9 µM and 43.9 µM.
In the same order, the values of `CCc1ccc(CN2CC(N3CCOCC3)C2)o1` are 188 µM and 129 µM.
In the case of `CNS(=O)(=O)CC1CCCN1c1ncc(Br)cn1` (stereo unspecified), the IC50 in experiment [1] was above 501 µM; in experiment [2] it was 289 µM.
In the same order, the values of `CCCN(CCC)S(=O)(=O)N1CCC2(CC1)OCCO2` are above 501 µM and 149 µM.
For `CN(C(=O)CN1CCCC1Cc1ccccc1)c1ccccc1` (stereo unspecified), in that order: above 50.1 µM and 33 µM.
Take `CCCc1nnc(NCc2ccc(C)cn2)o1`: the IC50 in experiment [1] is 212 µM; in experiment [2] it was 138 µM.
For `CN(Cc1nc2ccccc2o1)C1CCCN(c2cccnn2)C1` (stereo unspecified), in that order: above 50.1 µM and above 50.1 µM.
For `COC1(CNC(=O)c2cccc(C#N)c2)CCSC1` (stereo unspecified), in that order: above 50.1 µM and above 50.1 µM.
For `Cc1cc(NC(=O)Cc2ccc3c(c2)OCCO3)no1`, in that order: above 501 µM and 271 µM.
On to `O=C(CCc1ccccc1)N1CC(c2cccnc2)C1`, for which the IC50 in experiment [1] was 25.3 µM; in experiment [2], 45.7 µM.
For `CN(C)C(=O)c1csc2c1CCCC2`, the IC50 was 186 µM in experiment [1] and 271 µM in experiment [2].
For `O=C(NCCSCc1cccc(Cl)c1)C1CNCCO1` (stereo unspecified), in that order: 259 µM and 266 µM.
Consider `OCc1cnc2c(F)cccc2c1`, for which the IC50 in experiment [1] and in experiment [2] was above 501 µM each time.
Turning to `N#CCCSc1nnc(Cc2ccccc2F)o1`, the IC50 in experiment [1] and in experiment [2] was above 50.1 µM each time.
For the compound `Cc1nc(Nc2ncccn2)cc(C2CN(C(=O)c3cccnc3)C2)n1`, the IC50 in experiment [1] and in experiment [2] was above 50.1 µM in each case.
On to `CC(C)Sc1nc(-c2ccccn2)no1`, for which the IC50 in experiment [1] was 312 µM; in experiment [2], 320 µM.
For `CC1=CCN(C(=O)c2ccsc2)CC1`, in that order: above 501 µM and 160 µM.
In the same order, the values of `COCC(C)Oc1cc(C)ccc1CN` (stereo unspecified) are 228 µM and 149 µM.
`COc1ccc(CN2CCOC[C@H](OCCC(C)C)C2)cc1`: the IC50 in experiment [1] and in experiment [2] was above 50.1 µM in each case.
Consider `Cc1ccc(C(N)c2ccccn2)cc1` (stereo unspecified), for which the IC50 was 191 µM in experiment [1] and 90.7 µM in experiment [2].
Take `O=c1oc(-c2ccc(F)cc2)nn1CC1CCCCO1` (stereo unspecified): the IC50 in experiment [1] is above 50.1 µM; in experiment [2], 0.609 µM.
On to `CCCc1ccc(C(=O)N2CCCN(C)CC2)cc1`, for which the IC50 in experiment [1] was above 501 µM; in experiment [2], 270 µM.
On to `COCCNc1ccc(OC)c(OC)c1`, for which the IC50 in experiment [1] was above 501 µM; in experiment [2], 257 µM.
For `COc1ccc(C(=O)NC(C)Cn2cccn2)c(O)c1` (stereo unspecified), the results for the IC50 in experiment [1] and in experiment [2] were 276 µM and 256 µM, respectively.
As to `Cc1cnc(C(=O)NCCSCc2ccco2)cn1`, the IC50 in experiment [1] and in experiment [2] was above 501 µM throughout.
`CC(C)Cc1noc(-c2ccc(N(C)CCO)nc2)n1`: the IC50 is 397 µM in experiment [1] and 239 µM in experiment [2].
On to `CC(C)S(=O)(=O)CCCn1nnc(-c2ccsc2)n1`, for which the IC50 in experiment [1] is 94.9 µM; in experiment [2], 56.7 µM.
Regarding `COc1ccc2c(c1)NCC(C)O2` (stereo unspecified), the IC50 in experiment [1] is 214 µM; in experiment [2], 94.8 µM.
For `COc1ccc(OC)c(CNc2nc(C)nn2C)c1`, in that order: above 501 µM and 199 µM.
In the same order, the values of `CC(C)Cc1noc(CNc2cc3c(cc2Cl)OCCCO3)n1` are 27.1 µM and above 50.1 µM.
With `NCC(O)c1ccc(Cl)cc1Cl` (stereo unspecified), the IC50 in experiment [1] is above 501 µM; in experiment [2], 304 µM.
For `CSc1c(F)cc(NC(=O)NCCO)cc1F`, in that order: above 501 µM and above 501 µM.
With `O=C1CCC2(CCN(Cc3cscn3)CC2)CN1CCCO`, the IC50 in experiment [1] and in experiment [2] was above 50.1 µM each time.
`Cc1ccc2[nH]c(C(=O)N3CCN(C)CC3)cc2c1`: the IC50 was 316 µM in experiment [1] and 384 µM in experiment [2].
For the compound `Cc1cccc(C[S+]([O-])CC(=O)NCC2CC2)c1` (stereo unspecified), the IC50 in experiment [1] and in experiment [2] was above 501 µM throughout.
As for `COC(=O)C(O)CNc1ccc(C(F)(F)F)cn1` (stereo unspecified), the IC50 in experiment [1] and in experiment [2] was above 501 µM throughout.
As to `CNC(=O)NC(=O)C(C)Nc1cccc(C)c1` (stereo unspecified), the IC50 in experiment [1] was 190 µM; in experiment [2] it was 201 µM.
`CN(C)S(=O)(=O)NC(c1ccccc1)c1ccccc1`: the IC50 is above 501 µM in experiment [1] and 195 µM in experiment [2].
For `CN(C)C(=O)CSc1nnc(C(F)(F)F)s1`, in that order: 305 µM and 487 µM.
In the same order, the values of `CCc1nc(C#N)c(NCc2ccc3c(c2)OCO3)o1` are 205 µM and 105 µM.
In the case of `CC(=O)N1CCCC1c1nnn2cc(-c3ccncc3)ccc12` (stereo unspecified), the IC50 in experiment [1] and in experiment [2] was above 50.1 µM each time.
With `FC(F)(F)Sc1ccccc1NCc1nc(C2CC2)no1`, the IC50 is above 50.1 µM in experiment [1] and 15.7 µM in experiment [2].
On to `NC1CCCN(S(=O)(=O)C=Cc2cccc(Cl)c2)C1` (stereo unspecified), for which the IC50 in experiment [1] is 257 µM; in experiment [2] it was 216 µM.
Take `COc1cc(Oc2ccc(C(F)(F)F)cn2)ccc1CN1CCCC1`: the IC50 is 16.6 µM in experiment [1] and 13.9 µM in experiment [2].
In the same order, the values of `NCC(O)c1ccc(Cl)c(F)c1` (stereo unspecified) are above 501 µM and 252 µM.
In the case of `CC(OC(=O)c1ccc(C(F)(F)F)cc1)C(N)=O` (stereo unspecified), the IC50 is 466 µM in experiment [1] and 229 µM in experiment [2].
In the same order, the values of `CNC(=O)NC(=O)CCN1CCc2ccccc2C1` are 201 µM and 196 µM.
As to `CNc1nc(NCCS(C)(=O)=O)ncc1Br`, the IC50 in experiment [1] and in experiment [2] was above 501 µM throughout.
As to `O=S(=O)(NCCNc1ccc(-n2cccc2)nn1)c1ccccc1`, the IC50 is 16.5 µM in experiment [1] and 15.5 µM in experiment [2].
In the same order, the values of `c1ccc(Oc2cccc(NCc3csnn3)c2)nc1` are 171 µM and 298 µM.
For `CS(=O)(=O)N1CCC(COCc2ccccc2)C1` (stereo unspecified), in that order: 165 µM and 301 µM.
For `COc1c(C(=O)N2CCOCC2)sc2ccc(F)cc12`, in that order: 284 µM and 305 µM.
With `CC(C)c1cccc(S(=O)(=O)N(C)Cc2nnc[nH]2)c1`, the IC50 in experiment [1] and in experiment [2] was above 501 µM in each case.
In the case of `O=C(NCC1CC1)c1noc(-c2ccccc2F)n1`, the IC50 in experiment [1] was 99.7 µM; in experiment [2], 16.4 µM.
Consider `O=C(NCCNc1ccc(C(F)(F)F)cn1)c1ccc(Cl)cc1F`, for which the IC50 in experiment [1] was 19.3 µM; in experiment [2] it was 25.1 µM.
In the same order, the values of `CCCNC(=O)CNc1cc(F)c(OC)c(F)c1` are 326 µM and 166 µM.
In the same order, the values of `NC(=O)CC1CCN(C(=O)Cc2ccc(Cl)cc2)CC1` are above 501 µM and above 501 µM.
With `COc1ccc(F)c(-c2cc(C(=O)NC3CC3)ccn2)c1`, the values for the IC50 in experiment [1] and in experiment [2] were 10.6 µM and 22.7 µM, respectively.
As for `CCC(O)CN1CCN(c2ncccc2Br)CC1` (stereo unspecified), the IC50 in experiment [1] and in experiment [2] was above 501 µM in each case.
With `CN1CCCCC1CC(=O)NCc1ccc(C#N)cc1` (stereo unspecified), the IC50 in experiment [1] and in experiment [2] was above 501 µM in each case.
Regarding `CNc1nnc(-c2ccccc2)s1`, the IC50 in experiment [1] and in experiment [2] was above 501 µM each time.
For the compound `FC(F)Oc1ccc(NCc2nc(C3CC3)no2)c(OC(F)F)c1`, the values for the IC50 in experiment [1] and in experiment [2] were above 50.1 µM and 24.2 µM, respectively.
For `O=c1c2cc3c(cc2nnn1Cc1ccccc1Cl)OCCO3`, in that order: above 50.1 µM and above 50.1 µM.
For `CC1CCCCN1C(=O)COCc1nc(-c2ccncc2)no1` (stereo unspecified), in that order: above 50.1 µM and above 50.1 µM.
In the same order, the values of `OCCCNc1cccc(Cl)c1-n1cccn1` are above 501 µM and 183 µM.
Turning to `CC1CC(=O)NCCN1` (stereo unspecified), the IC50 in experiment [1] and in experiment [2] was above 501 µM throughout.
On to `OCCN1CCC2(CCc3cc(-c4ccoc4)ccc32)CC1`, for which the IC50 in experiment [1] was 24.1 µM; in experiment [2], 23.5 µM.
In the same order, the values of `Cc1nc[nH]c1CN1CCCC12CCN(c1nc3ccccc3s1)CC2` are above 50.1 µM and 46 µM.
For `OC1CCN(Cc2cc(Cl)c3c(c2)OCCO3)CC1`, the IC50 in experiment [1] and in experiment [2] was above 501 µM in each case.
